ChEMBL document CHEMBL1201862, “PubChem BioAssay data set” (2004)
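Step 1: Grow cells in 96-well plates. Step 2: Expose to compound for 48 hours at 5 concentrations. Step 3: Interpolate endpoints linearly; if unreached, use highest concentration. GI50 marks 50% less growth.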 Activity calls are given as the source filed them. No stated cut-off is given here; in the data, active = GI50 up to about 1.1 µM and inactive = higher. Peptide text beside a SMILES is read from it.

Key:
Test in all cases: growth of human tumour cells (NCI), 48 h
786-0 = tested on: 786-0
A549 = tested on: A549
BT-549 = tested on: BT-549
CAKI-1 = tested on: CAKI-1
EKVX = tested on: EKVX
HL-60 = tested on: HL-60
HOP-62 = tested on: HOP-62
MCF7 = tested on: MCF7
MDA-MB-231 = tested on: MDA-MB-231
MDA-MB-435 = tested on: MDA-MB-435
MDA-N = tested on: MDA-N
NCI-H226 = tested on: NCI-H226
OVCAR-3 = tested on: OVCAR-3
OVCAR-4 = tested on: OVCAR-4
RPMI-8226 = tested on: RPMI-8226
SN12C = tested on: SN12C
SNB-19 = tested on: SNB-19
SR = tested on: SR
UO-31 = tested on: UO-31
T47D = tested on: T47D

Compound | GI50 (786-0) | GI50 (A549) | GI50 (BT-549) | GI50 (CAKI-1) | GI50 (EKVX) | GI50 (HL-60) | GI50 (HOP-62) | GI50 (MCF7) | GI50 (MDA-MB-231) | GI50 (MDA-MB-435) | GI50 (MDA-N) | GI50 (NCI-H226) | GI50 (OVCAR-3) | GI50 (OVCAR-4) | GI50 (RPMI-8226) | GI50 (SN12C) | GI50 (SNB-19) | GI50 (SR) | GI50 (UO-31) | GI50 (T47D)
O=C(C(=O)c1cc(-c2ccccc2)nc2ccc3ccccc3c12)c1ccccc1 | 33.5 µM (inactive) | 68.4 µM (inactive) | 65.8 µM (inactive) | 58.3 µM (inactive) | 76.9 µM (inactive) | 20.7 µM (inactive) | 31.6 µM (inactive) | 28.1 µM (inactive) | > 100 µM (inactive) | 33.2 µM (inactive) | 36.1 µM (inactive) | 72.6 µM (inactive) | 67.1 µM (inactive) | 21.1 µM (inactive) | > 100 µM (inactive) | > 100 µM (inactive) | 35.9 µM (inactive) | 11.7 µM (inactive) | > 100 µM (inactive) | 
Nc1ncnc2c1nc(O)n2-c1ccccc1 | > 100 µM (inactive) | > 100 µM (inactive) | > 100 µM (inactive) | 78.9 µM (inactive) | 93.8 µM (inactive) | > 100 µM (inactive) | > 100 µM (inactive) | > 100 µM (inactive) |  | > 100 µM (inactive) | > 100 µM (inactive) |  | > 100 µM (inactive) | > 100 µM (inactive) | > 100 µM (inactive) | > 100 µM (inactive) | > 100 µM (inactive) | > 100 µM (inactive) | 57.7 µM (inactive) | 
CCOC(=O)C(NC(=O)CC)(Nc1ccc(S(=O)(=O)Nc2ncccn2)cc1)C(F)(F)F (stereo not given) | > 100 µM (inactive) | > 100 µM (inactive) |  | > 100 µM (inactive) | > 100 µM (inactive) | > 100 µM (inactive) | > 100 µM (inactive) | > 100 µM (inactive) | > 100 µM (inactive) | > 100 µM (inactive) | > 100 µM (inactive) | > 100 µM (inactive) | > 100 µM (inactive) | > 100 µM (inactive) | > 100 µM (inactive) | > 100 µM (inactive) | > 100 µM (inactive) | > 100 µM (inactive) | > 100 µM (inactive) | > 100 µM (inactive)
O=C(O)c1nc2ccccc2nc1Nc1ccc(F)cc1 | 40.9 µM (inactive) | 33.4 µM (inactive) | 44.3 µM (inactive) | 20.9 µM (inactive) | 36.4 µM (inactive) | 25.7 µM (inactive) | 30.4 µM (inactive) | 29.9 µM (inactive) |  | 34.8 µM (inactive) |  | 23.7 µM (inactive) | 15.3 µM (inactive) | 41.8 µM (inactive) | 23.1 µM (inactive) |  | 30.8 µM (inactive) | 32.7 µM (inactive) | 43 µM (inactive) | 28.4 µM (inactive)
CC1=NN(C(=O)CSc2nnc(SCC(=O)N3N=C(C)CC3(O)c3ccccc3)s2)C(O)(c2ccccc2)C1 (stereo not given) | 43.3 µM (inactive) | 48.4 µM (inactive) | 15.5 µM (inactive) | 45.8 µM (inactive) | 27 µM (inactive) |  | 51.3 µM (inactive) | 35.1 µM (inactive) | 95.5 µM (inactive) | 51.3 µM (inactive) | 39.6 µM (inactive) |  | 41.1 µM (inactive) | 32.9 µM (inactive) | 15.5 µM (inactive) | 61.7 µM (inactive) | 60.4 µM (inactive) | 23.3 µM (inactive) | 22.3 µM (inactive) | 
CCOC(=O)C1=C(C)N(Cc2ccccc2)C2(O)C=CC(=O)C3C(=O)N(c4ccccc4)C(=O)C132 (stereo not given) | 1.59 µM (inactive) | 2.86 µM (inactive) |  | 1.53 µM (inactive) | 10.3 µM (inactive) | 1.99 µM (inactive) | 2.35 µM (inactive) | 2.25 µM (inactive) | 3.96 µM (inactive) | 1.89 µM (inactive) | 3.61 µM (inactive) | 2.45 µM (inactive) | 2.28 µM (inactive) | 1.98 µM (inactive) | 1.03 µM (active) | 2.56 µM (inactive) | 7.52 µM (inactive) | 1.01 µM (active) | 1.89 µM (inactive) | 2.42 µM (inactive)
COc1ccc(OC)c(N(CN2C(=O)CCC2C(=O)O)C(C)=O)c1 (stereo not given) | > 100 µM (inactive) | > 100 µM (inactive) |  | > 100 µM (inactive) | > 100 µM (inactive) | > 100 µM (inactive) | > 100 µM (inactive) | > 100 µM (inactive) | > 100 µM (inactive) | > 100 µM (inactive) | > 100 µM (inactive) | > 100 µM (inactive) | > 100 µM (inactive) | > 100 µM (inactive) | > 100 µM (inactive) | > 100 µM (inactive) | > 100 µM (inactive) | > 100 µM (inactive) | > 100 µM (inactive) | > 100 µM (inactive)
c1ccc(/N=C(\N2CCCC2)N(CCN2CCCC2)c2ccccc2)cc1 | 43.2 µM (inactive) | 56.6 µM (inactive) | 15.6 µM (inactive) | 53.5 µM (inactive) | 73.3 µM (inactive) | 2.91 µM (inactive) | 9.79 µM (inactive) | 13.5 µM (inactive) |  | 7.67 µM (inactive) |  | 23.7 µM (inactive) | 20 µM (inactive) | 32.1 µM (inactive) | 47.8 µM (inactive) | 29.8 µM (inactive) | > 100 µM (inactive) | 13.2 µM (inactive) | 14.8 µM (inactive) | 28.8 µM (inactive)
O=C(O)c1ccc(Nc2nc3ccc(C(F)(F)F)cc3nc2C(=O)O)cc1 | > 100 µM (inactive) | > 100 µM (inactive) |  | > 100 µM (inactive) | > 100 µM (inactive) | > 100 µM (inactive) | > 100 µM (inactive) | > 100 µM (inactive) | > 100 µM (inactive) | > 100 µM (inactive) | > 100 µM (inactive) | > 100 µM (inactive) | > 100 µM (inactive) | > 100 µM (inactive) | > 100 µM (inactive) | > 100 µM (inactive) | > 100 µM (inactive) | > 100 µM (inactive) | > 100 µM (inactive) | > 100 µM (inactive)
CC1(C)CC(=O)C2=C(C1)NC1=C(C2)C(=O)CC(C)(C)C1 | > 100 µM (inactive) | > 100 µM (inactive) | > 100 µM (inactive) | > 100 µM (inactive) | > 100 µM (inactive) | > 100 µM (inactive) | > 100 µM (inactive) | > 100 µM (inactive) | > 100 µM (inactive) | > 100 µM (inactive) | > 100 µM (inactive) | > 100 µM (inactive) | > 100 µM (inactive) | > 100 µM (inactive) | > 100 µM (inactive) | > 100 µM (inactive) | > 100 µM (inactive) | > 100 µM (inactive) | > 100 µM (inactive) | 
Cc1c2n(c3ccccc13)S(=O)(=O)c1ccccc1-2 | 10.1 µM (inactive) | 23.4 µM (inactive) | 39.8 µM (inactive) | 12.3 µM (inactive) | 6.37 µM (inactive) | > 100 µM (inactive) |  | 28.9 µM (inactive) | 17.8 µM (inactive) | > 100 µM (inactive) | 34.9 µM (inactive) | 77.3 µM (inactive) | 45.9 µM (inactive) | 17.2 µM (inactive) | > 100 µM (inactive) |  | 19.8 µM (inactive) | > 100 µM (inactive) | 18.4 µM (inactive) | 
CCCCCc1c(Cl)nc(Cl)nc1Cl | 3.67 µM (inactive) | 39.7 µM (inactive) |  | 2.88 µM (inactive) | 22.5 µM (inactive) | 2.42 µM (inactive) | 22.6 µM (inactive) | 10.2 µM (inactive) | 5.69 µM (inactive) | 2.76 µM (inactive) | 4.95 µM (inactive) | 2 µM (inactive) | 14.4 µM (inactive) | 16.1 µM (inactive) | 3.03 µM (inactive) | 3.1 µM (inactive) | 15.7 µM (inactive) | 0.157 µM (active) | 18.5 µM (inactive) | 19.4 µM (inactive)
O=c1c2ccccc2nc(N/N=C/c2ccccc2O)n1-c1ccccc1 | 1.53 µM (inactive) | 4.8 µM (inactive) | 41.5 µM (inactive) | 5.62 µM (inactive) |  | 2.65 µM (inactive) | 5.25 µM (inactive) | 3.33 µM (inactive) | 4.59 µM (inactive) | 4.71 µM (inactive) | 7.64 µM (inactive) | 5.41 µM (inactive) | 3.49 µM (inactive) | 5.18 µM (inactive) |  | 6.24 µM (inactive) | 56.5 µM (inactive) |  | 2.54 µM (inactive) | 
O=C(Nc1ccccc1)c1cc2ccccc2c(/N=N/c2ccc([N+](=O)[O-])cc2)c1O | 86.3 µM (inactive) | > 100 µM (inactive) | 44.3 µM (inactive) | > 100 µM (inactive) | > 100 µM (inactive) | 1.14 µM (inactive) | 30.6 µM (inactive) |  | 71.9 µM (inactive) | > 100 µM (inactive) |  | > 100 µM (inactive) | 70.1 µM (inactive) | > 100 µM (inactive) | 25.5 µM (inactive) | > 100 µM (inactive) | 59.6 µM (inactive) |  | > 100 µM (inactive) | > 100 µM (inactive)
CC(C)CC(NC(=O)C(CC(C)C)NC(=O)C(Cc1c[nH]cn1)NC(=O)C(C)NC(=O)C(NC(=O)C(C)NC(=O)C(Cc1c[nH]c2ccccc12)NC(=O)C(CCC(=O)O)NC(=O)C(N)Cc1ccccc1)C(C)C)C(N)=O (stereo not given) (H-FEWAVAHLL-NH2; configuration not given here) | > 12.5 µM (inactive) | > 12.5 µM (inactive) |  | > 12.5 µM (inactive) | > 12.5 µM (inactive) | > 12.5 µM (inactive) | > 12.5 µM (inactive) | > 12.5 µM (inactive) | > 12.5 µM (inactive) | > 12.5 µM (inactive) | > 12.5 µM (inactive) | > 12.5 µM (inactive) | > 12.5 µM (inactive) | > 12.5 µM (inactive) | > 12.5 µM (inactive) | > 12.5 µM (inactive) | > 100 µM (inactive) |  | > 12.5 µM (inactive) | > 12.5 µM (inactive)
